Experimental data from patent US10206400B2, “Insecticidal compounds based on isoxazoline derivatives” (Syngenta Crop Protection LLC, priority 2009, dated 2019).

Assays:
Type in all cases: in vivo
[1] = test system: Thrips tabaci; experiment: Thrips tabaci (onion thrips) leaf disc spray test; conditions: foliar, 168 h, 200 ppm spray on sunflower leaf discs, mixed ages, 7 days, mortality
Description: [The procedure below names another target; the source lists this target under the same test.] Sunflower leaf discs were placed on agar in a 24-well microtiter plate and sprayed with test solutions at an application rate of 200 ppm. After drying, the leaf discs were infested with an […] population of mixed ages. After an incubation period of 7 days, samples were checked for mortality.

[2] = test system: Spodoptera littoralis; experiment: Spodoptera littoralis (Egyptian cotton leafworm) leaf disc spray test; conditions: foliar, 72 h, 200 ppm spray on cotton leaf discs, L1 larvae, mortality, feeding behavior, growth regulation 3 days after treatment
From the text: Cotton leaf discs were placed on agar in a 24-well microtiter plate and sprayed with test solutions at an application rate of 200 ppm. After drying, the leaf discs were infested with 5 L1 larvae. The samples were checked for mortality, feeding behavior, and growth regulation 3 days after treatment (DAT).

[3] = test system: Diabrotica balteata; experiment: Diabrotica balteata (corn root worm) artificial diet test; conditions: 120 h, 200 ppm (concentration in well 18 ppm), L2 larvae, 5 days, larval mortality, growth regulation
Description: (§1) A 24-well microtiter plate (MTP) with artificial diet was treated with test solutions at an application rate of 200 ppm (concentration in well 18 ppm) by pipetting. After drying, the MTP's were infested with L2 larvae (6-10 per well). After an incubation period of 5 days, samples were checked for larval mortality and growth regulation.

[4] = test system: Heliothis virescens; experiment: Heliothis virescens (tobacco budworm) egg/artificial diet test; conditions: 96 h, 200 ppm (concentration in well 18 ppm), eggs 0-24 h old on artificial diet, 4 days, egg mortality, larval mortality, growth regulation
Description: Eggs (0-24 h old) were placed in 24-well microtiter plate on artificial diet and treated with test solutions at an application rate of 200 ppm (concentration in well 18 ppm) by pipetting. After an incubation period of 4 days, samples were checked for egg mortality, larval mortality, and growth regulation.

[5] = test system: Tetranychus urticae; experiment: Tetranychus urticae (two-spotted spider mite) leaf disc spray test; conditions: foliar, 192 h, 200 ppm spray on bean leaf discs, mixed ages, 8 days, egg, larval and adult mortality
From the text: Bean leaf discs on agar in 24-well microtiter plates were sprayed with test solutions at an application rate of 200 ppm. After drying, the leaf discs are infested with mite populations of mixed ages. 8 days later, discs are checked for egg mortality, larval mortality, and adult mortality.

[6] = test system: Plutella xylostella; experiment: Plutella xylostella (diamond back moth) artificial diet test; conditions: 144 h, 200 ppm (concentration in well 18 ppm), L2 larvae, 6 days, larval mortality, growth regulation
Description: as §1, with “24-well” for “A 24-well”, “(7-12” for “(6-10”, “6” for “5”

[7] = test system: Myzus persicae; experiment: Myzus persicae (green peach aphid), systemic test; conditions: 144 h, roots of infested pea seedlings in test solution, 6 days, mortality, special effects on the plant
From the text: Myzus persicae (Green peach aphid), systemic test: Roots of pea seedlings, infested with an aphid population of mixed ages, are placed directly in the test solutions at an application rate of 12.5 ppm. 6 days after introduction, samples are checked for mortality and special effects on the plant. The following compounds gave at least 80% control of Myzus persicae: A3, B2, B3, B5, B6, B7, B8, B11, B12, C1, C2, C3,C4, C5, C6, C7, D1, E1, E2, G1, G3, G5, G6, H1, H5, H6, H9, H10, H11, H12, H13, H14, H18, H19, H20, H24, H25, and H26.

CCN1OC(CNC(=O)c2ccc(C3=NOC(c4cc(Cl)cc(Cl)c4)(C(F)(F)F)C3)cc2C)CC1=O (stereo not shown) [Compound F3, 4-[5-(3,5-Dichloro-phenyl)-5-trifluoromethyl-4,5-dihydro-isoxazol-3-yl]-2-methyl-N-[3-oxo-2-ethyl-isoxazolidin-5-ylmethyl]-benzamide]
≥ 80%: pest or weed control at 200 ppm [1] | pest or weed control at 200 ppm [2] | pest or weed control at 200 ppm [3] | pest or weed control at 200 ppm [4] | pest or weed control at 200 ppm [5] | pest or weed control at 200 ppm [6]

Cc1cc(C2=NOC(c3cc(Cl)cc(Cl)c3)(C(F)(F)F)C2)ccc1C(=O)N[C@@H]1CON(Cc2ccccc2)C1=O (stereo partly drawn) [Compound B4, 4-[5-(3,5-Dichloro-phenyl)-5-trifluoromethyl-4,5-dihydro-isoxazol-3-yl]-2-methyl-N-((R)-2-benzyl-3-oxo-isoxazolidin-4-yl)-benzamide]
≥ 80%: pest or weed control at 200 ppm [1] | pest or weed control at 200 ppm [2] | pest or weed control at 200 ppm [3] | pest or weed control at 200 ppm [4] | pest or weed control at 200 ppm [5] | pest or weed control at 200 ppm [6]

CCN1OC[C@H](NC(=O)c2ccc(C3=NO[C@@](c4cc(Cl)cc(Cl)c4)(C(F)(F)F)C3)cc2C)C1=O [Compound G3, 4-[5-(3,5-dichloro-phenyl)-5-(S)-trifluoromethyl-4,5-dihydro-isoxazol-3-yl]-2-methyl-N—((S)-2-ethyl-3-oxo-isoxazolidin-4-yl)-benzamide]
≥ 80%: pest or weed control at 200 ppm [1] | pest or weed control at 200 ppm [2] | pest or weed control at 200 ppm [3] | pest or weed control at 200 ppm [4] | pest or weed control at 200 ppm [5] | pest or weed control at 12.5 ppm [7] | pest or weed control at 200 ppm [6]

Cc1cc(C2=NOC(c3cc(Cl)cc(Cl)c3)(C(F)(F)F)C2)ccc1C(=O)N[C@@H]1CON(CCO)C1=O (stereo partly drawn) [Compound B9, 4-[5-(3,5-Dichloro-phenyl)-5-trifluoromethyl-4,5-dihydro-isoxazol-3-yl]-2-methyl-N-((R)-2-(2-hydroxy-ethyl)-3-oxo-isoxazolidin-4-yl)-benzamide]
≥ 80%: pest or weed control at 200 ppm [1] | pest or weed control at 200 ppm [2] | pest or weed control at 200 ppm [3] | pest or weed control at 200 ppm [4] | pest or weed control at 200 ppm [5] | pest or weed control at 200 ppm [6]

C#CCN1OC[C@@H](NC(=O)c2ccc(C3=NOC(c4cc(Cl)cc(Cl)c4)(C(F)(F)F)C3)cc2C)C1=O (stereo partly drawn) [Compound B3, 4-[5-(3,5-Dichloro-phenyl)-5-trifluoromethyl-4,5-dihydro-isoxazol-3-yl]-2-methyl-N-((R)-2-propargyl-3-oxo-isoxazolidin-4-yl)-benzamide]
≥ 80%: pest or weed control at 200 ppm [1] | pest or weed control at 200 ppm [2] | pest or weed control at 200 ppm [3] | pest or weed control at 200 ppm [4] | pest or weed control at 200 ppm [5] | pest or weed control at 12.5 ppm [7] | pest or weed control at 200 ppm [6]

Cc1cc(C2=NOC(c3cc(Cl)cc(Cl)c3)(C(F)(F)F)C2)ccc1C(=O)NCC1CC(=O)N(CC(F)(F)F)O1 (stereo not shown) [Compound F4, 4-[5-(3,5-Dichloro-phenyl)-5-trifluoromethyl-4,5-dihydro-isoxazol-3-yl]-2-methyl-N-[3-oxo-2-(1,1,1-trifluoroethyl)-isoxazolidin-5-ylmethyl]-benzamide]
≥ 80%: pest or weed control at 200 ppm [1] | pest or weed control at 200 ppm [2] | pest or weed control at 200 ppm [3] | pest or weed control at 200 ppm [4] | pest or weed control at 200 ppm [5] | pest or weed control at 200 ppm [6]

Cc1cc(C2=NOC(c3cc(Cl)cc(Cl)c3)(C(F)(F)F)C2)ccc1C(=O)N[C@@H]1CONC1=O (stereo partly drawn) [Compound B1, 4-[5-(3,5-Dichloro-phenyl)-5-trifluoromethyl-4,5-dihydro-isoxazol-3-yl]-2-methyl-N-((R)-3-oxo-isoxazolidin-4-yl)-benzamide]
≥ 80%: pest or weed control at 200 ppm [2] | pest or weed control at 200 ppm [4] | pest or weed control at 200 ppm [5] | pest or weed control at 200 ppm [6]

COc1ccc(N2CCC(CNC(=O)c3ccc(C4=NOC(c5cc(Cl)cc(Cl)c5)(C(F)(F)F)C4)cc3C)S2(=O)=O)cc1 (stereo not shown) [Compound F6, 4-[5-(3,5-Dichloro-phenyl)-5-trifluoromethyl-4,5-dihydro-isoxazol-3-yl]-N-[2-(4-methoxy-phenyl)-1,1-dioxo-1 lambda*6*-isothiazolidin-5-ylmethyl]-2-methyl-benzamide]
≥ 80%: pest or weed control at 200 ppm [2] | pest or weed control at 200 ppm [3] | pest or weed control at 200 ppm [4] | pest or weed control at 200 ppm [5] | pest or weed control at 200 ppm [6]

Cc1cc(C2=NOC(c3cc(Cl)cc(Cl)c3)(C(F)(F)F)C2)ccc1C(=O)NCC1CCN(Cc2ccccc2)O1 (stereo not shown) [Compound F1, N-(2-Benzyl-isoxazolidin-5-ylmethyl)-4-[5-(3,5-dichloro-phenyl)-5-trifluoromethyl-4,5-dihydro-isoxazol-3-yl]-2-methyl-benzamide]
≥ 80%: pest or weed control at 200 ppm [1] | pest or weed control at 200 ppm [2] | pest or weed control at 200 ppm [3] | pest or weed control at 200 ppm [4] | pest or weed control at 200 ppm [5] | pest or weed control at 200 ppm [6]

Cc1cc(C2=NOC(c3cc(Cl)cc(Cl)c3)(C(F)(F)F)C2)ccc1C(=O)N[C@@H]1CON(C2CCC2)C1=O (stereo partly drawn) [Compound B11, 4-[5-(3,5-Dichloro-phenyl)-5-trifluoromethyl-4,5-dihydro-isoxazol-3-yl]-2-methyl-N-((R)-2-(cyclobutyl)-3-oxo-isoxazolidin-4-yl)-benzamide]
≥ 80%: pest or weed control at 200 ppm [1] | pest or weed control at 200 ppm [2] | pest or weed control at 200 ppm [3] | pest or weed control at 200 ppm [5] | pest or weed control at 12.5 ppm [7] | pest or weed control at 200 ppm [6]

Cc1cc(C2=NOC(c3cc(Cl)cc(Cl)c3)(C(F)(F)F)C2)ccc1C(=O)NCC1CO[S+]([O-])O1 (stereo not shown) [Compound F5, 4-[5-(3,5-dichlorophenyl)-5-(trifluoromethyl)-4H-isoxazol-3-yl]-2-methyl-N-[(2-oxido-1,3,2-dioxathiolan-2-ium-4-yl)methyl]benzamide]
≥ 80%: pest or weed control at 200 ppm [1] | pest or weed control at 200 ppm [2] | pest or weed control at 200 ppm [3] | pest or weed control at 200 ppm [4] | pest or weed control at 200 ppm [5] | pest or weed control at 200 ppm [6]

Cc1cc(C2=NOC(c3cc(Cl)cc(Cl)c3)(C(F)(F)F)C2)ccc1C(=O)NC1CSSC1 (stereo not shown) [Compound A1, 4-[5-(3,5-Dichloro-phenyl)-5-trifluoromethyl-4,5-dihydro-isoxazol-3-yl]-N-[1,2]dithiolan-4-yl-2-methyl-benzamide]
≥ 80%: pest or weed control at 200 ppm [1] | pest or weed control at 200 ppm [2] | pest or weed control at 200 ppm [3] | pest or weed control at 200 ppm [4] | pest or weed control at 200 ppm [6]

Cc1cc(C2=NOC(c3cc(Cl)cc(Cl)c3)(C(F)(F)F)C2)ccc1C(=O)N[C@@H]1CON(C2CSC2)C1=O (stereo partly drawn) [Compound B10, 4-[5-(3,5-Dichloro-phenyl)-5-trifluoromethyl-4,5-dihydro-isoxazol-3-yl]-2-methyl-N-((R)-2-(thietan-3-yl)-3-oxo-isoxazolidin-4-yl)-benzamide]
≥ 80%: pest or weed control at 200 ppm [1] | pest or weed control at 200 ppm [2] | pest or weed control at 200 ppm [3] | pest or weed control at 200 ppm [4] | pest or weed control at 200 ppm [5] | pest or weed control at 200 ppm [6]

Cc1cc(C2=NOC(c3cc(Cl)cc(Cl)c3)(C(F)(F)F)C2)ccc1C(=O)NCC1CCN(C)O1 (stereo not shown) [Compound F2, N-(2-methyl-isoxazolidin-5-ylmethyl)-4-[5-(3,5-dichloro-phenyl)-5-trifluoromethyl-4,5-dihydro-isoxazol-3-yl]-2-methyl-benzamide]
≥ 80%: pest or weed control at 200 ppm [1] | pest or weed control at 200 ppm [2] | pest or weed control at 200 ppm [3] | pest or weed control at 200 ppm [4] | pest or weed control at 200 ppm [5] | pest or weed control at 200 ppm [6]
